This is an account of results in patent publication US10351509B2, “Fenfluramine compositions and methods of preparing the same” (priority 2015, dated 2019).

Like-named read-outs stand apart in the source and are kept apart here. Marks after values point to notes of the source that are not given here.

Series [1] in a line: Hygroscopicity by Dynamic Vapor Sorption (DVS). It counts as physicochemical.
A short description of series [2]: Holding at approximately 170° C., analysis by XRPD, DSC and 1H NMR. It counts as physicochemical. Conditions: held at approximately 170° C. for several hours. As to the method: Holding Fenfluramine HCl at approximately 170° C. for several hours causes a melt and evaporation event to take place with recombination and cooling to provide a white solid.
For series [3] the following is noted: for Parent remaining: 168 h.
The nature of a further series: Solid stability by HPLC. Conditions: 8 weeks at 40° C., 60° C. and 80° C.; 7 days at 150° C.; all conditions. In kind it is physicochemical.
A short description of a further series: Solution pH (water). In kind it is physicochemical.
A short description of series [4]: pKa (water) of drug substance.
Series [5] can be described thus: Stability analysis of the salt (Form 1) under temperature/humidity and photostability conditions. It counts as physicochemical. The conditions noted are these: one week at 40° C./0% RH, three weeks at 40° C./75% RH, and photostability conditions. The text has this:
Fenfluramine HCl is developed as a single polymorph Form 1. A polymorphism and pre-formulation study has been conducted. Under a wide range of solvents and conditions crystalline material is produced of the same polymorph Form 1 based on a well-defined XRPD pattern and a consistent reproducible endotherm by DSC analysis. A summary of the chemophysical properties of Fenfluramine HCl from this study is provided below. Tabulated data includes example diffractograms, DSCs, and micrographs.

Series [6] is described as follows: Solubility in organic solvents. Conditions: 25 °C, organic solvent or mixture.

Turning to `CCNC(C)Cc1cccc(C(F)(F)F)c1.Cl` (racemic) [Fenfluramine HCl, N-ethyl-α-methyl-3-(trifluoromethyl)-benzeneethanamine hydrochloride (1:1)], the “Hygroscopicity (Dynamic Vapor Sorption (DVS))” value in series [1] (@30% RH) was “@30% RH: ~0.05%”; in [1] (@60% RH) it was “@60% RH: ~0.07%”; in [1] (@90% RH), “@90% RH: ~0.20%^a)”. Moreover, the “Change after melt and evaporation event (XRPD, DSC, 1H NMR)” value in series [2] is recorded as “no change in chemical or physical form, purity, or dissociation”. For the same compound, in series [3] (24 h), the “Parent remaining after degradation” value was 94.42%. Also, the Parent remaining turned out to be 99.90 parent area % in series [3] and 99.73 parent area % in series [3] (buffer). Also, the “Solid Stability: new impurities >0.1% by HPLC” value in “Solid stability by HPLC” was 150 °C All conditions, no new impurities >0.1% by. The solubility (commonly the dissolved amount per volume that the medium holds) in the series “Aqueous solubility” (0.9% NaCl in water, 25 °C, saline or isotonic) was 23 mg/mL; in “Aqueous solubility” (pH 1.73 buffer, 25 °C, pH 1.73, simulated gastric fluid), 25.3 mg/mL; in the series “Aqueous solubility” (pH 1.73 buffer, 37 °C, pH 1.73, simulated gastric fluid), 53.7 mg/mL; in the series “Aqueous solubility” (pH 3.43 buffer, 25 °C, pH 3.43, aqueous buffer), 29.5 mg/mL; in “Aqueous solubility” (pH 3.43 buffer, 37 °C, pH 3.43, aqueous buffer), 62 mg/mL; in “Aqueous solubility” (pH 6.41 buffer, 25 °C, pH 6.41, aqueous buffer), 37.4 mg/mL. The solubility in the series “Aqueous solubility” (pH 6.41 buffer, 37 °C, pH 6.41, aqueous buffer) is 95.6 mg/mL; in “Aqueous solubility” (water, 25 °C, pH 6.69, water), 54.1 mg/mL; in the series “Aqueous solubility” (water, 37 °C, pH 6.69, water), 71.2 mg/mL; in series [6] (dichloromethane) it was 30 to 35 mg/mL; in [6] (ethanol) it was 150 mg/mL; in [6] (ethyl acetate, tetrahydrofuran, toluene, acetonitrile) it was 1 to 5 mg/mL. Moreover, in “Solution pH (water)”, the “Solution pH (water)” value turned out to be 6.69. The pKa (in general, the negative logarithm of the acid dissociation constant) in series [4] lay within 10.2 to 10.4. In series [5], the “Stability of the salt: form and new impurities at 0.1% threshold” value is on record as “input Form 1 has been maintained with no new impurities observed at 0.1% threshold”.
